Active and inactive are the calls of the source. The rule behind the calls is not given here.

For data set [1], the system named is L929. In words: Inhibition of TLR-3 induced necroptosis in mouse L929 cells assessed as increase in cell viability at 1 uM incubated for 18 hrs in presence of poly(I:C) by Cell Titer-Glo luminescent cell viability assay. In kind it is functional, cell-based.
Data set [2] deals with 3T3SA. As to the kind of experiment: Induction of apoptosis in mouse 3T3SA cells assessed as cell death by measuring percent of PI positive cells incubated for 3 hrs by PI staining based flow cytometric analysis (reference value: 10.7%). In kind it is toxicity.
In data set [3] the test system is 3T3SA. As to the kind of experiment: Induction of apoptosis in mouse 3T3SA cells assessed as cell death by measuring percent of PI positive cells incubated for 8 hrs by PI staining based flow cytometric analysis (reference value: 11.4%). In kind it is toxicity. Background: In flow cytometry, cells or beads pass a laser one at a time.
Data set [4] deals with 3T3SA. In words: Induction of apoptosis in mouse 3T3SA cells assessed as accumulation of cleaved caspase-3 measured after 1.5 to 2.5 hrs by immunoblot analysis. The class given is toxicity, cell-based. The note with it: time 1.5-2.5 hrs. Background: A western blot detects proteins with antibodies after separation by electrophoresis.
The subject of data set [5] is 3T3SA. In words: Induction of apoptosis in mouse 3T3SA cells assessed as membrane blebbing incubated for 2.5 hrs. The class given is toxicity, cell-based.
Data set [6] relates to 3T3SA. In words: Induction of apoptosis in mouse 3T3SA cells assessed as accumulation of cleaved caspase-3 by measuring percentage of cleaved caspase-3 positive cells measured after 2.5 hrs in presence of zVAD by immunoblot analysis (reference value: 4%). In kind it is toxicity, cell-based.
A further data set deals with NIH3T3. As to the kind of experiment: Induction of apoptosis in mouse NIH/3T3 cells expressing low level of […] at 1 to 10 uM incubated for 18 hrs by Cell Titer-Glo luminescent cell viability assay. The class given is toxicity, cell-based. The note with it: nih3t3, 18 h, dose 1-10 µM.
Data set [7] has as its system L929. As to the kind of experiment: Induction of apoptosis in mouse L929 cells transfected with RIP3 shRNA at 10 uM incubated for 18 hrs by Cell Titer-Glo luminescent cell viability assay. In kind it is toxicity, cell-based. The note with it: l929, 18 h. For orientation: Cellular ATP, detected with luciferase, serves as a proxy for viable cell number.
Data set [8] relates to 3T3SA. In words: Induction of apoptosis in mouse 3T3SA cells transfected with RIP3 shRNA assessed as increase in caspase3/7 proteolytic activity incubated for 4 hrs. The class given is toxicity, cell-based.
Data set [9] relates to 3T3SA. In words: Induction of apoptosis in mouse 3T3SA cells incubated for 18 hrs in presence of zIETD by Cell Titer-Glo luminescent cell viability assay. In kind it is toxicity, cell-based.
Data set [10] concerns 3T3SA. In words: Induction of apoptosis in mouse 3T3SA cells assessed as increase in caspase 8 proteolytic activity incubated for 2.5 hrs. The class given is toxicity, cell-based.
The subject of data set [11] is 3T3SA. In words: Induction of apoptosis in mouse 3T3SA cells assessed as cleaved caspase 8 accumulation incubated for 2.5 hrs by immunoblot analysis. The class given is toxicity, cell-based.
Data set [12] relates to 3T3SA. As to the kind of experiment: Induction of apoptosis in mouse 3T3SA cells transfected with Caspase8 siRNA incubated for 2.5 hrs by Cell Titer-Glo luminescent cell viability assay. The class given is toxicity, cell-based.
Data set [13] relates to 3T3SA. As to the kind of experiment: Induction of apoptosis in mouse 3T3SA cells transfected with Caspase8 siRNA assessed as cleaved caspase 8 accumulation incubated for 2.5 hrs by immunoblot analysis. The class given is toxicity, cell-based.
In data set [14] the test system is 3T3SA. As to the kind of experiment: Induction of apoptosis in mouse 3T3SA cells incubated for 18 hrs in presence of Nec-1 by Cell Titer-Glo luminescent cell viability assay. In kind it is toxicity, cell-based.
Data set [15] concerns MEF. As to the kind of experiment: Induction of apoptosis in RIP-/- MEF cells incubated for 18 hrs by Cell Titer-Glo luminescent cell viability assay. The note with it: mouse. In kind it is toxicity, cell-based.
Data set [16] concerns MEF. In words: Induction of apoptosis in cFLIPL-/- MEF cells transfected with cFLIPL expressing retrovirus incubated for 18 hrs by Cell Titer-Glo luminescent cell viability assay. The conditions noted are these: mouse. In kind it is toxicity, cell-based.
Another data set concerns SVEC4-10. As to the kind of experiment: Induction of apoptosis in mouse SVEC4-10 cells transfected with MCMV M45-encoded vIRA incubated for 18 hrs by Cell Titer-Glo luminescent cell viability assay. In kind it is toxicity, cell-based. The conditions noted are these: svec4-10, 18 h.
Data set [17] has as its system 3T3SA. As to the kind of experiment: Induction of apoptosis in RIP3shRNA transfected mouse 3T3SA cells co-transfected with shRNA-resistant RIP3 pre-tranfected for 16 hrs followed by compound addition and measured after 18 hrs in presence of zVAD by Cell Titer-Glo luminescent cell viability assay. The class given is toxicity, cell-based.
Data set [18] relates to 3T3SA. In words: Induction of apoptosis in RIP3shRNA transfected mouse 3T3SA cells co-transfected with shRNA-resistant RIP3 K51A mutant pre-tranfected for 16 hrs followed by compound addition and measured after 18 hrs in presence of zVAD by Cell Titer-Glo luminescent cell viability assay. In kind it is toxicity, cell-based.
Data set [19] relates to 3T3SA. In words: Induction of apoptosis in RIP3shRNA transfected mouse 3T3SA cells co-transfected with shRNA-resistant RIP3 D161N mutant pre-tranfected for 16 hrs followed by compound addition and measured after 18 hrs in presence of zVAD by Cell Titer-Glo luminescent cell viability assay. The class given is toxicity, cell-based.
Data set [20] deals with 3T3SA. As to the kind of experiment: Induction of apoptosis in RIP3shRNA transfected mouse 3T3SA cells co-transfected with shRNA-resistant RIP3 D161G mutant pre-tranfected for 16 hrs followed by compound addition and measured after 18 hrs in presence of zVAD by Cell Titer-Glo luminescent cell viability assay. The class given is toxicity, cell-based.
Data set [21] concerns 3T3SA. As to the kind of experiment: Induction of apoptosis in vICA expression plasmid transfected mouse 3T3SA cells co-transfected with shRNA-resistant RIP3 incubated for 12 hrs by Cell Titer-Glo luminescent cell viability assay. In kind it is toxicity, cell-based.
Data set [22] concerns 3T3SA. In words: Induction of apoptosis in mouse 3T3SA cells in presence of vIRA by Cell Titer-Glo luminescent cell viability assay. The class given is toxicity, cell-based.
The test system of data set [23] is MEF. In words: Induction of apoptosis in RIP3-/- MEF cells expressing dox-induced RIP3 K51A mutant assessed as RIP1-FADD association incubated for 1 hrs by immunoblot analysis. In kind it is toxicity, cell-based. The conditions noted are these: mouse.
For data set [24], the system named is MEF. As to the kind of experiment: Induction of apoptosis in RIP3-/- MEF cells expressing dox-induced RIP3 K51A mutant assessed as RIP1-RIP3 association incubated for 1 hrs by immunoblot analysis. The class given is toxicity, cell-based. The note with it: mouse.
The next data set relates to BMDM. As to the kind of experiment: Induction of apoptosis in mouse BMDM cells expressing wildtype RIP3 incubated for 18 hrs by Cell Titer-Glo luminescent cell viability assay. In kind it is toxicity, cell-based.
Data set [25] has as its target Serine/threonine-protein kinase tousled-like 2 (Homo sapiens) (UniProt Q86UE8). As to the kind of experiment: Inhibition of human TLK2 using casein as substrate at 1 uM in presence of 32P-ATP by Hotspot assay relative to control; values are per cent of control.
Data set [26] addresses Serine/threonine-protein kinase 38 (Homo sapiens) (UniProt Q15208). As to the kind of experiment: Inhibition of human STK38/NDR1 using KKRNRRLSVA as substrate at 1 uM in presence of 32P-ATP by Hotspot assay relative to control; values are per cent of control.
The target in data set [27] is MAP kinase-interacting serine/threonine-protein kinase 1 (Homo sapiens) (UniProt Q9BUB5). As to the kind of experiment: Inhibition of human MNK1 using myelin basic protein as substrate at 1 uM in presence of 32P-ATP by Hotspot assay relative to control; values are per cent of control.
Chain of MAP kinase-interacting serine/threonine-protein kinase 1 (Homo sapiens) (Q9BUB5 whole entry, looked up): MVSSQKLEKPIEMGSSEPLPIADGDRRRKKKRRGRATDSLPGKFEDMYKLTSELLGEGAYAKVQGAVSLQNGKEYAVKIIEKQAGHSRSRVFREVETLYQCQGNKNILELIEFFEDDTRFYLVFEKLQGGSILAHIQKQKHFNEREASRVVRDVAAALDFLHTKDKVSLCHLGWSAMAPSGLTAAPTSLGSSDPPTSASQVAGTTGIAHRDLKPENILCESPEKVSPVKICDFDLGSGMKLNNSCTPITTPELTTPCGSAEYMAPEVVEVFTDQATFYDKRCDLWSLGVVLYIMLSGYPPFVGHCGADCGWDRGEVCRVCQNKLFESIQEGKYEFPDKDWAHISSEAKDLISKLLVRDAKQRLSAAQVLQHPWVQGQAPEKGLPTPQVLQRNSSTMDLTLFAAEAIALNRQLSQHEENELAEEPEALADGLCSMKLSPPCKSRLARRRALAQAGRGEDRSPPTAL
The target in data set [28] is Serine/threonine-protein kinase ULK1 (Homo sapiens) (UniProt O75385). As to the kind of experiment: Inhibition of human ULK1 using myelin basic protein as substrate at 1 uM in presence of 32P-ATP by Hotspot assay relative to control; values are per cent of control.
Chain of Serine/threonine-protein kinase ULK1 (Homo sapiens) (O75385 whole entry): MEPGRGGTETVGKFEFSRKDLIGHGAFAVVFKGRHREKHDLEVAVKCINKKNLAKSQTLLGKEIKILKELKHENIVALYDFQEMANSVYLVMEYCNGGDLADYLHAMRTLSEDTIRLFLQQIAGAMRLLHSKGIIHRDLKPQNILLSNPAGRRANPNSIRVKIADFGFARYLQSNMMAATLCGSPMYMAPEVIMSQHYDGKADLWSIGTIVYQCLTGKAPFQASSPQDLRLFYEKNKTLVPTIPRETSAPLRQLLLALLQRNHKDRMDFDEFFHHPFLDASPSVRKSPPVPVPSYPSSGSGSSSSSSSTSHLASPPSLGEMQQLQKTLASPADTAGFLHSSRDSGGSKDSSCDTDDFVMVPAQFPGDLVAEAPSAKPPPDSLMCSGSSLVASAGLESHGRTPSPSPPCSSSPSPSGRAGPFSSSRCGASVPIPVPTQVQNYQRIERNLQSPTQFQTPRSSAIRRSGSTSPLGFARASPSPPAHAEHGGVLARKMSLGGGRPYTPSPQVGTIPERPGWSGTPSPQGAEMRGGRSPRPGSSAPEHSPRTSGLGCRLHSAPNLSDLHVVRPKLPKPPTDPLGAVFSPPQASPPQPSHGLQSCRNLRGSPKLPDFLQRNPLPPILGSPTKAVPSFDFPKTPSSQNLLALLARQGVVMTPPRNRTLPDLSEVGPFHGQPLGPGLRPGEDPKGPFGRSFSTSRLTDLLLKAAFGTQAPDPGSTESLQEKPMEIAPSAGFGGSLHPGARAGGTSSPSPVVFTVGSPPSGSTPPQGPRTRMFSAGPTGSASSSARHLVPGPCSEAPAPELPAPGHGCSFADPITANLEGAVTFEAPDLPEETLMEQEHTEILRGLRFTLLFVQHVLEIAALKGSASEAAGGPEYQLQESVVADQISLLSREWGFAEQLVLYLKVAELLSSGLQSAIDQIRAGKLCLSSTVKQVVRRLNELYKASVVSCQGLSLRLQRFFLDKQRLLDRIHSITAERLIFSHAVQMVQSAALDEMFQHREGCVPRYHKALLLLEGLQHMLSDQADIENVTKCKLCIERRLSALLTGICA
Data set [29] addresses Myosin-IIIb (Homo sapiens) (UniProt Q8WXR4). In words: Inhibition of human MYO3b using myelin basic protein as substrate at 1 uM in presence of 32P-ATP by Hotspot assay relative to control; values are per cent of control.

Chain of Myosin-IIIb (Homo sapiens) (Q8WXR4 whole entry): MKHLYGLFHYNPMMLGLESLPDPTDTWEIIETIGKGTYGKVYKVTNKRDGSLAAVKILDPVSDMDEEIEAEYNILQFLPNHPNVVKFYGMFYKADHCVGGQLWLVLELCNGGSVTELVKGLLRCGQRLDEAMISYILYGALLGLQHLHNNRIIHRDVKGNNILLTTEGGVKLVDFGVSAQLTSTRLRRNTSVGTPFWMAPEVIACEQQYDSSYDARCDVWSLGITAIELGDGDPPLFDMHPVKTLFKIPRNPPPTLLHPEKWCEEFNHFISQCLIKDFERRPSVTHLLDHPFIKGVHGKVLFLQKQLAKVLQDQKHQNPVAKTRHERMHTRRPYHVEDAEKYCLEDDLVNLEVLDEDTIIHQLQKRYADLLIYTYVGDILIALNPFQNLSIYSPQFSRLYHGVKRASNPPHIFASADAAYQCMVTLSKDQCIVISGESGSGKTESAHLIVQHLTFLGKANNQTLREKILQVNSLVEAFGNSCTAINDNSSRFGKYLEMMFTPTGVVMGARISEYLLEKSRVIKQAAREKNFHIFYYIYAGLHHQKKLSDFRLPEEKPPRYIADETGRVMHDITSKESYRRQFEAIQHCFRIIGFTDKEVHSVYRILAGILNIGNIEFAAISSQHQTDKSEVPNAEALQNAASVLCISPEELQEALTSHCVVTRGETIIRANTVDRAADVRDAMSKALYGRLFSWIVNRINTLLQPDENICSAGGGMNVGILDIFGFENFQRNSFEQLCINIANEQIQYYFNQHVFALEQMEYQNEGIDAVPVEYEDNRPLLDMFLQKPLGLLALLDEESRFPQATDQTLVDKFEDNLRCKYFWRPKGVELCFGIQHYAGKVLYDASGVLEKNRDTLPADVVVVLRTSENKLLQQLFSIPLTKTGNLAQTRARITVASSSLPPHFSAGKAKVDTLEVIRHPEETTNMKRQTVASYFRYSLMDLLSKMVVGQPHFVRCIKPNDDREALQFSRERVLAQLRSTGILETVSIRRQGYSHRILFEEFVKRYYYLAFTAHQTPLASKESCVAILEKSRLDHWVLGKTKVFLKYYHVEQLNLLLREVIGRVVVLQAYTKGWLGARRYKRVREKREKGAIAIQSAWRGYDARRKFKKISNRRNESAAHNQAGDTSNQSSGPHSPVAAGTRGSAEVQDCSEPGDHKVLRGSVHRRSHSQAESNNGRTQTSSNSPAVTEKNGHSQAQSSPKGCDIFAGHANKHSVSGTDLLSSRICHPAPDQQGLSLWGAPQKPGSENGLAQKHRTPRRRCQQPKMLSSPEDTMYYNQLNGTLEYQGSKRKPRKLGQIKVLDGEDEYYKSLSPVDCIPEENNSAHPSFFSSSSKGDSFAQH
Chain of Serine/threonine-protein kinase tousled-like 2 (Homo sapiens) (Q86UE8 whole entry, looked up): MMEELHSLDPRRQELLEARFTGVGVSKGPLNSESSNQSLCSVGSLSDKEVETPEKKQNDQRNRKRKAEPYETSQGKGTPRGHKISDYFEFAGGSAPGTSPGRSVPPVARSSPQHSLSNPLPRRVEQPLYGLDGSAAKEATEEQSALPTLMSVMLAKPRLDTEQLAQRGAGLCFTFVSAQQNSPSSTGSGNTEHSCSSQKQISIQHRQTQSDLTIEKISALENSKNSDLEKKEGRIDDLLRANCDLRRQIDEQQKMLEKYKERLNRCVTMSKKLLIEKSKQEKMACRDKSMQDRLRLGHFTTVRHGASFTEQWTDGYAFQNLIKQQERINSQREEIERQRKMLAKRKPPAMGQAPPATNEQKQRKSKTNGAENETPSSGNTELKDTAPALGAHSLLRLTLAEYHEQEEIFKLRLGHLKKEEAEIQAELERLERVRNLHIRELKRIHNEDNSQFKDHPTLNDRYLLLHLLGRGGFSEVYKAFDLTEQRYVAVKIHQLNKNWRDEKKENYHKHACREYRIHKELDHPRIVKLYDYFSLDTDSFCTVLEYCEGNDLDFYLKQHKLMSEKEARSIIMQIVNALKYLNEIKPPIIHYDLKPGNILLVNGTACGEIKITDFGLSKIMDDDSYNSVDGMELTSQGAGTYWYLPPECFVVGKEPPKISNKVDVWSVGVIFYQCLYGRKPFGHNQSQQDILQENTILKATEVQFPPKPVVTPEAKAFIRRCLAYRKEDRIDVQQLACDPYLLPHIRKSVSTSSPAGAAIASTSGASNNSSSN
Chain of Serine/threonine-protein kinase 38 (Homo sapiens) (Q15208 2-465 limits assumed): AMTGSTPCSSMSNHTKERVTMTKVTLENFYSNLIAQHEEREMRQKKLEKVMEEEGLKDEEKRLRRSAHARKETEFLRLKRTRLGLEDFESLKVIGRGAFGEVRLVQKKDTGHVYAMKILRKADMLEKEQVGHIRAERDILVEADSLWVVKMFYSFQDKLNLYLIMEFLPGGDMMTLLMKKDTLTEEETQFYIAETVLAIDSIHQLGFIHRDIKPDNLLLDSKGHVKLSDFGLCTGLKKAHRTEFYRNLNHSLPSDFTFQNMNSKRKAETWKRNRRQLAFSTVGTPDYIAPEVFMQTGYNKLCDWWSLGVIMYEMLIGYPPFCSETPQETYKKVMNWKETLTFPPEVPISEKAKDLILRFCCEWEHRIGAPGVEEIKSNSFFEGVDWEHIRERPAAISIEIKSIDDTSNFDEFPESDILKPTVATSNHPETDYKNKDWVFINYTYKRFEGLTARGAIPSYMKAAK

As for `CC(C)S(=O)(=O)c1ccc2nccc(Nc3ccc4scnc4c3)c2c1`, in the data set on L929 [1], the inhibition entry is “Active”. Further, the Activity with 3T3SA [2] was 24%; in the data set on 3T3SA [3], 62%; with 3T3SA [4], “Toxic”; in the data set with 3T3SA [5], “Toxic”; with 3T3SA [6], 3%; in the data set with NIH3T3, “Non-Toxic”. Besides, the Activity result in the data set with L929 [7] is “Non-Toxic”; in the data set on 3T3SA [8], “Non-Toxic”; in the data set with 3T3SA [9], “Non-Toxic”; in the data set with 3T3SA [10] it was “Toxic”; in the data set on 3T3SA [11], “Toxic”; in the data set with 3T3SA [12], “Non-Toxic”. Further, the Activity result in the data set on 3T3SA [13] was “Non-Toxic”; with 3T3SA [14] it was “Non-Toxic”; with MEF [15], “Non-Toxic”; in the data set on MEF [16] it was “Toxic”; in the data set on SVEC4-10, “Non-Toxic”; with 3T3SA [17], “Non-Toxic”. Further, the Activity result in the data set with 3T3SA [18] is on record as “Non-Toxic”; with 3T3SA [19] it was “Non-Toxic”; with 3T3SA [20], “Non-Toxic”; in the data set on 3T3SA [21], “Non-Toxic”; with 3T3SA [22], “Non-Toxic”; with MEF [23], “Toxic”. The Activity result with MEF [24] and in the data set on BMDM was “Toxic” each time.

Turning to `CNC(=O)c1ccc2c(c1)ncn2-c1ccc(CC(=O)OC(C)(C)C)cc1`, the residual activity was 94.4% in [25]; 96.4% in data set [26]; 99.7% in data set [27]; 104% in data set [28]; 92.4% in data set [29].

As usually defined, the residual activity is the signal under treatment as a percentage of the control signal.

The record behind these values is ChEMBL document CHEMBL5649166, “RIP3 induces apoptosis independent of pronecrotic kinase activity” (Mol Cell, 2014).
